Assay [1] is described as follows: Luminescence-based cell-based high throughput dose response assay to identify activators of the DAF-12 from the parasite S. stercoralis (ssDAF-12). Type of assay: functional.
Assay [2] addresses T1, Oxysterols receptor LXR-beta (Homo sapiens, UniProt P55055).
T1 sequence (P55055 whole entry): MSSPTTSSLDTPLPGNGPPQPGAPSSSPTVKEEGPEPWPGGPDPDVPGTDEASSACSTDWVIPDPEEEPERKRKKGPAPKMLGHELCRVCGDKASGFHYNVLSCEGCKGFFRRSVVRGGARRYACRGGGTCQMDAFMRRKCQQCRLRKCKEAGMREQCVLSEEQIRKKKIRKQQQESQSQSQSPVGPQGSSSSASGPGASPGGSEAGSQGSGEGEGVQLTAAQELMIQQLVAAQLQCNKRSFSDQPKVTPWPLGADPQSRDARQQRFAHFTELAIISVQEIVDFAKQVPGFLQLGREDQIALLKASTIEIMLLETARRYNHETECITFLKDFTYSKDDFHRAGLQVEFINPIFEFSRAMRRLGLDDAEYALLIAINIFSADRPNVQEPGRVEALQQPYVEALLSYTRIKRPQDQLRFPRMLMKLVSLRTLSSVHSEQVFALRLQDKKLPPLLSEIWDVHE
Description: LXR agonists, Gal4 luciferase reporter, dose response, counter-screen for ssDAF-12 agonist project, cell-based, luminescence, HEK293, S. stercoralis campaign (AID 720737). Conditions: read-out: IC50 (the source's name). Type of assay: functional. For orientation: Reporter assays use an easily measured gene product as a stand-in for the process of interest.

Assay [3] concerns the target Sphingosine 1-phosphate receptor 2 (Homo sapiens, UniProt O95136). As to the kind of experiment: Dose Response Cell Based Assay for Antagonists of the S1P2 Receptor. [Related pubchem assays: 856, 736 ]. Type of assay: functional.
In assay [4] the target is T2, Calpain-2 catalytic subunit (Sus scrofa, UniProt P43367).
T2 sequence (P43367 whole entry): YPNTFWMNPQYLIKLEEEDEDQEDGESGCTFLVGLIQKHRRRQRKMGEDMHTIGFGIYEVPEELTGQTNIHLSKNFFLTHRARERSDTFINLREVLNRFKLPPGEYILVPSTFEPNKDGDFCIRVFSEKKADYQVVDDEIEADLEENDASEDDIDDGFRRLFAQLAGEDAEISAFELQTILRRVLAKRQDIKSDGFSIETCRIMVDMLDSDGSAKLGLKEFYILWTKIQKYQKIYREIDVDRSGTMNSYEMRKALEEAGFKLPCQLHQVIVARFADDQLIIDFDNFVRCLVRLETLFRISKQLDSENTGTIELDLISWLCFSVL
Description: m-calpain protease blockers, concentration series – biochemical, fluorogenic peptide substrate, dose response (AID 1420). Type of assay: functional.

The target in assay [5] is T3, Fibrinogen beta chain (Homo sapiens, UniProt P02675). Description: Fluorescence polarization-based biochemical high throughput dose response assay to identify inhibitors that disrupt the binding of a cyclic peptide (Tn6) to the fibrin proteolytic product D-Dimer and fragment E complex [DD(E )].
T3 sequence (P02675 whole entry, the tested form may be a part): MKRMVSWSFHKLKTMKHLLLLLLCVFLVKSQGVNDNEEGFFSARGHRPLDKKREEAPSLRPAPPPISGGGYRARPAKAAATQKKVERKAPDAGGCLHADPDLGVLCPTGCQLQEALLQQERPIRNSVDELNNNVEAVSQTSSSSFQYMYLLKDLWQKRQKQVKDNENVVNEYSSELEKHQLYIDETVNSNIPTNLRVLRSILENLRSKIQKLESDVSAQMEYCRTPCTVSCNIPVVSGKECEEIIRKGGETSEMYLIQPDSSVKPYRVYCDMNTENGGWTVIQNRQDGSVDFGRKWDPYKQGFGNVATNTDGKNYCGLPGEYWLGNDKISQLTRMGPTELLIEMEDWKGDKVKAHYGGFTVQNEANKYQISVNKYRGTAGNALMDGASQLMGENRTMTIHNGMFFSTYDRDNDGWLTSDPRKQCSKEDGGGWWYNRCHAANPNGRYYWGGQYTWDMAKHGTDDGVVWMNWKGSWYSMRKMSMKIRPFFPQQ
The target in assay [6] is T3, Fibrinogen beta chain. As to the kind of experiment: Fluorescence polarization-based biochemical high throughput dose response assay to identify inhibitors that disrupt the binding of a cyclic peptide (Tn7) to the fibrin proteolytic product D-Dimer and fragment E complex [DD(E )].
Assay [7] is described as follows: CellTiter-Glo luminescence survival assay, SW480 colon tumor line, concentration-response curve, half-maximal inhibitory concentration (AID 1117338). It is filed as functional. On the technique in general: Cellular ATP, detected with luciferase, serves as a proxy for viable cell number.
Assay [8] in a line: RKO cell viability reduction, dose response, CellTiter-Glo luminescence (AID 1117322). It is filed as functional.
Assay [9] can be described thus: cytotoxicity toward HCT116 cells – cell-based, CellTiter-Glo luminescence, IC50, dose response (AID 1117332). Type of assay: functional. To be noted: HCT-116.
Assay [10] is described as follows: SNU-C1 cell viability reduction, dose response, CellTiter-Glo luminescence (AID 1117323). Type of assay: functional, cell-based.
Assay [11] in a line: cytotoxicity toward Colo320 cells – cell-based, CellTiter-Glo luminescence, IC50, dose response (AID 1117334). It is filed as functional. Conditions: COLO 320.
Assay [12] is described as follows: cytotoxicity toward HT-29 cells – cell-based, CellTiter-Glo luminescence, IC50, dose response (AID 1117330). Type of assay: functional.
The nature of assay [13]: Reduced DLD-1 viability, concentration-response, CellTiter-Glo luminescence (AID 1117352). It is filed as functional.
The nature of assay [14]: HCT116 cell viability decrease, GSK3B pretreatment – CellTiter-Glo, IC50, dose response (AID 1117339). Type of assay: functional. Conditions: HCT-116.
The target in assay [15] is Diphosphomevalonate decarboxylase (Streptococcus pneumoniae serotype 2 (strain D39 / NCTC 7466), UniProt Q9FD53). Description: diphosphomevalonate decarboxylase inhibitor confirmation – biochemical, cuvette format, coupled NADH fluorescence (AID 1028). It is filed as functional.
Sequence of Diphosphomevalonate decarboxylase (Q9FD53 whole entry): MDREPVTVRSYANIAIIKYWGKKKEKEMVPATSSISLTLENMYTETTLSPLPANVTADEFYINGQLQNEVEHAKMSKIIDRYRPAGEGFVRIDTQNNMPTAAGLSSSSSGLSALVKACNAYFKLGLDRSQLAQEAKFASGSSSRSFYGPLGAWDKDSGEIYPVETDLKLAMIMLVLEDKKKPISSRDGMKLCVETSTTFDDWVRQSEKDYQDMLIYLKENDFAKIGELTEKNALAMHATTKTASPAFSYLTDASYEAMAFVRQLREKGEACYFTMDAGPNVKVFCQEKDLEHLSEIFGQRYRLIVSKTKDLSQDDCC
Assay [16] can be described thus: decrease of insulin promoter-GFP reporter – imaging, high-content screening, mouse beta cells (AID 1628). It is filed as functional. Conditions: MIN6.
Assay [17] can be described thus: MIN6 cell viability loss – mouse insulinoma, cytotoxicity control, dose response (AID 2122).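 Note: confirmatory high-throughput counterscreen run to flag cytotoxic compounds.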 Type of assay: functional.
A short description of assay [18]: Trypanosoma cruzi growth suppression in host cells – NIH3T3 host cells, beta-gal luminescence, confirmation (AID 2044).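 Note: intracellular parasites grown in NIH/3T3 mouse fibroblasts as host cells; luminescent beta-galactosidase reporter signal from transgenic T. cruzi replicating inside host cells; inhibitors lower the luminescence signal.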 It is filed as functional, cell-based.
Assay [19] can be described thus: NIH3T3 cell viability loss – ATP luminescence, mouse fibroblasts, counter-screen, dose response (AID 2010).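 Note: cells exposed to compound for about 90 hours before reading.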 Type of assay: functional, cell-based.
A further assay addresses Beta-galactosidase (Escherichia coli, UniProt Q8VNN2). As to the kind of experiment: Dose response counterscreen for EBI2 assay utilizing the enzyme, b-galactosidase. Type of assay: functional.
Assay [20] can be described thus: viability loss in THP-1 monocytes – THP-1 cells, cytotoxicity control for Vif-APOBEC3G degradation inhibitor project, dose response (AID 1117359). To be noted: THP-1. Type of assay: functional.
A short description of assay [21]: HIV-1 Vif–A3G interaction blockers – biochemical, TR-FRET, GST-Vif 1-94, biotin-A3G peptide, dose response retest, primary screen (AID 1117319).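 Note: TR-FRET signal of purified GST-Vif binding a biotinylated A3G peptide; inhibitors lower the FRET signal by blocking Vif and A3G binding.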 It is filed as functional. For orientation: In TR-FRET formats the signal depends on donor and acceptor labels being close together.
Assay [22] can be described thus: viability loss in Vero cells – cytotoxicity control for Vif-APOBEC3G degradation inhibitor project, dose response (AID 1117358). Type of assay: functional. To be noted: Vero.

Structures are written as SMILES. Calls of active or inactive are those of the source.

Sequence of Sphingosine 1-phosphate receptor 2 (O95136 whole entry): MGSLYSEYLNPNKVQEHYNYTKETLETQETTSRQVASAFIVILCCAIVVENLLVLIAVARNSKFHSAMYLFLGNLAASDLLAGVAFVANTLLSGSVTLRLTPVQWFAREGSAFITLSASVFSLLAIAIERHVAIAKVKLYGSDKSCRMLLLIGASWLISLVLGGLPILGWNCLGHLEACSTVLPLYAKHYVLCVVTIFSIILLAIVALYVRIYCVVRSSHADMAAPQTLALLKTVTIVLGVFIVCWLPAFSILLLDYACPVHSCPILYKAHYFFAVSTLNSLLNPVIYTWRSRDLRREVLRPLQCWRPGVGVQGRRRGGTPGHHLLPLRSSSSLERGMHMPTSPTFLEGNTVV
Sequence of Beta-galactosidase (Q8VNN2 whole entry): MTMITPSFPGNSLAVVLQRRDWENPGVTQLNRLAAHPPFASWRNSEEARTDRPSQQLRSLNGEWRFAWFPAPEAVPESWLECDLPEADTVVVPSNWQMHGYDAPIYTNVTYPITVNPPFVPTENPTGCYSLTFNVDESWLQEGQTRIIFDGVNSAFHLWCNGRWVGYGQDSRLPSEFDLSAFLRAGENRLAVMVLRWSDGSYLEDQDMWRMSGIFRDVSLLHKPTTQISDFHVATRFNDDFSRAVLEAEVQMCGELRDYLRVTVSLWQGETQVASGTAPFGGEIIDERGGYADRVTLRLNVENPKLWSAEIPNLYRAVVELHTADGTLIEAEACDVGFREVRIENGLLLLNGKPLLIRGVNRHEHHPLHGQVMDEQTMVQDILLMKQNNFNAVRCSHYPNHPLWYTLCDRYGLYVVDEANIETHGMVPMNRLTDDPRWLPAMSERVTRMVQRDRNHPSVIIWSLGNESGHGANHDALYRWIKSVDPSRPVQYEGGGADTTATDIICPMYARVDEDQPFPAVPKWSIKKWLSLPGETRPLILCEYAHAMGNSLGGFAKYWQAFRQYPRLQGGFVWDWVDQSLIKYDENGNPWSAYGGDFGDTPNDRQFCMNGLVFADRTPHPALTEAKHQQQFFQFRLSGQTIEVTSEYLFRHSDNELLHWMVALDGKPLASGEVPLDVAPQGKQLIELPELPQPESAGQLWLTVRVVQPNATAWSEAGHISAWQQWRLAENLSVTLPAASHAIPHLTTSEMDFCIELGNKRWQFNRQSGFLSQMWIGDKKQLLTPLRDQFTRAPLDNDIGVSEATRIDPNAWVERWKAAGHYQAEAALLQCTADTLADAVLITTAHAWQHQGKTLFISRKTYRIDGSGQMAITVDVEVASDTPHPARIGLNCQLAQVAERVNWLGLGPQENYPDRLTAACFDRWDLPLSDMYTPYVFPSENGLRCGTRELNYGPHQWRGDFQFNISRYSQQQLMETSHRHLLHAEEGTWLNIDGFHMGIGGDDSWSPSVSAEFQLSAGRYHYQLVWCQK

In the case of `Oc1ccc(N=Nc2ccccc2)o1`, the IC50 in [1] was > 67.6 µM (inactive). The EC50 in assay [2] is > 67.6 µM (inactive).
For `COC(=O)c1sc2cc(C(F)(F)F)cnc2c1-c1cccnc1`, the IC50 in assay [3] is reported as > 30 µM (not active); in [4] it was 14.3 µM (not active).
Take `CCOC(=O)N1CCN(Cc2nc(-c3ccc(C)cc3)no2)CC1`: the IC50 on Fibrinogen beta chain [5] is > 83.3 µM (inactive); on Fibrinogen beta chain [6], > 27.8 µM (inactive).
Consider `CC(CC=O)CCCC(C)(C)O` (stereo not drawn), for which the IC50 in assay [7], in [8], in assay [9], in assay [10], in assay [11] and in [12] was > 20 µM (inactive) throughout. Further, the IC50 in [13] and in assay [14] was > 20 µM (inactive) in each case.
Turning to `CCN(CC)C(=O)c1ccc(-n2sc3ccccc3c2=O)cc1`, in assay [15], the IC50 was 19.2 µM (active).
Consider `Cc1cccc(S(=O)(=O)c2c(N)n(/N=C/c3ccco3)c3nc4ccccc4nc23)c1`, for which the IC50 in [16] was 6.02 µM (active); in assay [17], 9.21 µM (active); on Beta-galactosidase, > 80 µM (inactive); in assay [21], > 55.3 µM (active). Moreover, the EC50 in assay [18] is 2.12 µM (active); in [19], 12 µM (active). For the same compound, the CC50 in assay [20] and in assay [22] was > 40 µM (active) throughout.

Broadly, the IC50 is the concentration that gives 50% inhibition. As usually defined, the CC50 is the concentration at which the toxic effect on the cells reaches its halfway point.

The record behind these values is ChEMBL document CHEMBL1201862, “PubChem BioAssay data set” (2004).
